Test: Safety and tolerability
[1] = MAD 25 mg once daily 14 days, n = 9
[2] = MAD 75 mg once daily 14 days, n = 9
[3] = MAD 200 mg once daily 14 days, n = 9

## C=CC(=O)N1CCC(CNc2ncnc(N)c2-c2ccc(Oc3ccccc3)cc2)CC1 [evobrutinib]
[1]
  TEAE: Abdominal discomfort: 1 (11.1) (1) n (%), (number of events)
  TEAE: Abdominal pain: 0 (0.0) n (%), (number of events)
  TEAE: Application site irritation: 0 (0.0) n (%), (number of events)
  TEAE: Complex regional pain: 1 (11.1) (1) n (%), (number of events)
  TEAE: Constipation: 0 (0.0) n (%), (number of events)
  TEAE: Dry throat: 0 (0.0) n (%), (number of events)
  TEAE: Excoriation: 1 (11.1) (1) n (%), (number of events)
  TEAE: Fatigue: 0 (0.0) n (%), (number of events)
  TEAE: Headache: 1 (11.1) (1) n (%), (number of events)
  TEAE: Muscle spasms: 0 (0.0) n (%), (number of events)
  TEAE: Muscle strain: 1 (11.1) (1) n (%), (number of events)
  TEAE: Nausea: 0 (0.0) n (%), (number of events)
  TEAE: Overall total: 3 (33.3) (6) n (%), (number of events)
  TEAE: Rhinorrhea: 1 (11.1) (1) n (%), (number of events)
  TEAE: Sneezing: 0 (0.0) n (%), (number of events)
  TEAE: Toothache: 0 (0.0) n (%), (number of events)
  TEAE: URTI: 0 (0.0) n (%), (number of events)
[2]
  TEAE: Abdominal discomfort: 0 (0.0) n (%), (number of events)
  TEAE: Abdominal pain: 1 (11.1) (2) n (%), (number of events)
  TEAE: Application site irritation: 1 (11.1) (1) n (%), (number of events)
  TEAE: Complex regional pain: 0 (0.0) n (%), (number of events)
  TEAE: Constipation: 1 (11.1) (1) n (%), (number of events)
  TEAE: Dry throat: 1 (11.1) (1) n (%), (number of events)
  TEAE: Excoriation: 0 (0.0) n (%), (number of events)
  TEAE: Fatigue: 2 (22.2) (2) n (%), (number of events)
  TEAE: Headache: 2 (22.2) (2) n (%), (number of events)
  TEAE: Muscle spasms: 1 (11.1) (1) n (%), (number of events)
  TEAE: Muscle strain: 0 (0.0) n (%), (number of events)
  TEAE: Nausea: 1 (11.1) (2) n (%), (number of events)
  TEAE: Overall total: 7 (77.8) (14) n (%), (number of events)
  TEAE: Rhinorrhea: 0 (0.0) n (%), (number of events)
  TEAE: Sneezing: 1 (11.1) (1) n (%), (number of events)
  TEAE: Toothache: 0 (0.0) n (%), (number of events)
  TEAE: URTI: 1 (11.1) (1) n (%), (number of events)
[3]
  TEAE: Abdominal discomfort: 0 (0.0) n (%), (number of events)
  TEAE: Abdominal pain: 0 (0.0) n (%), (number of events)
  TEAE: Application site irritation: 1 (11.1) (1) n (%), (number of events)
  TEAE: Complex regional pain: 0 (0.0) n (%), (number of events)
  TEAE: Constipation: 0 (0.0) n (%), (number of events)
  TEAE: Dry throat: 0 (0.0) n (%), (number of events)
  TEAE: Excoriation: 0 (0.0) n (%), (number of events)
  TEAE: Fatigue: 0 (0.0) n (%), (number of events)
  TEAE: Headache: 0 (0.0) n (%), (number of events)
  TEAE: Muscle spasms: 0 (0.0) n (%), (number of events)
  TEAE: Muscle strain: 0 (0.0) n (%), (number of events)
  TEAE: Nausea: 0 (0.0) n (%), (number of events)
  TEAE: Overall total: 3 (33.3) (3) n (%), (number of events)
  TEAE: Rhinorrhea: 0 (0.0) n (%), (number of events)
  TEAE: Sneezing: 0 (0.0) n (%), (number of events)
  TEAE: Toothache: 1 (11.1) (1) n (%), (number of events)
  TEAE: URTI: 1 (11.1) (1) n (%), (number of events)
MAD pooled active, n = 27
  TEAE: Abdominal discomfort: 1 (3.7) (1) n (%), (number of events)
  TEAE: Abdominal pain: 1 (3.7) (2) n (%), (number of events)
  TEAE: Application site irritation: 2 (7.4) (2) n (%), (number of events)
  TEAE: Complex regional pain: 1 (3.7) (1) n (%), (number of events)
  TEAE: Constipation: 1 (3.7) (1) n (%), (number of events)
  TEAE: Dry throat: 1 (3.7) (1) n (%), (number of events)
  TEAE: Excoriation: 1 (3.7) (1) n (%), (number of events)
  TEAE: Fatigue: 2 (7.4) (2) n (%), (number of events)
  TEAE: Headache: 3 (11.1) (3) n (%), (number of events)
  TEAE: Muscle spasms: 1 (3.7) (1) n (%), (number of events)
  TEAE: Muscle strain: 1 (3.7) (1) n (%), (number of events)
  TEAE: Nausea: 1 (3.7) (2) n (%), (number of events)
  TEAE: Overall total: 13 (48.1) (23) n (%), (number of events)
  TEAE: Rhinorrhea: 1 (3.7) (1) n (%), (number of events)
  TEAE: Sneezing: 1 (3.7) (1) n (%), (number of events)
  TEAE: Toothache: 1 (3.7) (1) n (%), (number of events)
  TEAE: URTI: 2 (7.4) (2) n (%), (number of events)
SAD 25 mg, n = 6
  TEAE: Abdominal pain: 0 (0.0) n (%), (number of events)
  TEAE: Amylase increased: 0 (0.0) n (%), (number of events)
  TEAE: Application site pruritus (due to ECG stickers): 0 (0.0) n (%), (number of events)
  TEAE: Back pain: 0 (0.0) n (%), (number of events)
  TEAE: Contact dermatitis: 0 (0.0) n (%), (number of events)
  TEAE: Dizziness: 0 (0.0) n (%), (number of events)
  TEAE: Dry eye: 0 (0.0) n (%), (number of events)
  TEAE: Dry mouth: 0 (0.0) n (%), (number of events)
  TEAE: Dyspepsia: 0 (0.0) n (%), (number of events)
  TEAE: Excoriation: 0 (0.0) n (%), (number of events)
  TEAE: Headache: 0 (0.0) n (%), (number of events)
  TEAE: Lipase increased: 0 (0.0) n (%), (number of events)
  TEAE: Multiple injuries: 0 (0.0) n (%), (number of events)
  TEAE: Nasal congestion: 0 (0.0) n (%), (number of events)
  TEAE: Noncardiac chest pain: 0 (0.0) n (%), (number of events)
  TEAE: Odynophagia: 0 (0.0) n (%), (number of events)
  TEAE: Overall total: 0 (0.0) n (%), (number of events)
  TEAE: URTI: 0 (0.0) n (%), (number of events)
SAD 50 mg, n = 6
  TEAE: Abdominal pain: 0 (0.0) n (%), (number of events)
  TEAE: Amylase increased: 0 (0.0) n (%), (number of events)
  TEAE: Application site pruritus (due to ECG stickers): 0 (0.0) n (%), (number of events)
  TEAE: Back pain: 1 (16.7) (1) n (%), (number of events)
  TEAE: Contact dermatitis: 2 (33.3) (2) n (%), (number of events)
  TEAE: Dizziness: 0 (0.0) n (%), (number of events)
  TEAE: Dry eye: 0 (0.0) n (%), (number of events)
  TEAE: Dry mouth: 0 (0.0) n (%), (number of events)
  TEAE: Dyspepsia: 1 (16.7) (1) n (%), (number of events)
  TEAE: Excoriation: 0 (0.0) n (%), (number of events)
  TEAE: Headache: 1 (16.7) (2) n (%), (number of events)
  TEAE: Lipase increased: 0 (0.0) n (%), (number of events)
  TEAE: Multiple injuries: 0 (0.0) n (%), (number of events)
  TEAE: Nasal congestion: 0 (0.0) n (%), (number of events)
  TEAE: Noncardiac chest pain: 0 (0.0) n (%), (number of events)
  TEAE: Odynophagia: 0 (0.0) n (%), (number of events)
  TEAE: Overall total: 3 (50.0) (6) n (%), (number of events)
  TEAE: URTI: 0 (0.0) n (%), (number of events)

— paper PMC7070898 (Clinical and Translational Science, 2019)
